This note sets out measurements from patent publication US20250051344A1, “BIFUNCTIONAL SELECTIVE DEGRADERS OF SMARCA2 AND THERAPEUTIC USES THEREOF” (Nurix Therapeutics, Inc., priority 2023, published 2025).

The target of one assay is T1, SMARCA4 (Homo sapiens, UniProt P51532).
T1 construct: endogenous in cells
Briefly: Cellular degradation assay, SMARCA4 (Table 1). It counts as cell-based.

A further assay has as its target T2, SMARCA2 (Homo sapiens, UniProt P51531).
T2 construct: endogenous in cells
Briefly: SMARCA2 Cellular Degradation Assay (Western blot analysis on Jess platform). It counts as cell-based. Conditions: for Dmax / DC50: cellular degradation; for Fold Selectivity SMARCA4/2: ratio DC50 SMARCA4 / DC50 SMARCA2. How it is done:
SMARCA2 Cellular Degradation Assay
Western Blot Analysis for SMARCA2 Degradation
Frozen cell pellets were thawed on ice and resuspended in RIPA lysis buffer (Millipore, Cat. No. 20-188) supplemented with 0.2% SDS (Fisher Scientific, Cat. No. 24730020), 200 mM β-glycerophosphate (Alfa Aesar, Cat. No. J62121), 500 mM NaF (Rigaku, Cat. No. 1008046), protease inhibitor (1 tablet per 10 mL, Sigma, Cat. No. 11836170001), 250 U/μL benzonase (Millipore, Cat. No. 71206), 200 mM sodium orthovanadate (FivePhoton, Cat. No. ActVO-4), and 100 mM PMSF (Sigma, Cat. No. 10837091001). 50 μL lysis buffer was used to lyse each pellet containing 5×10E5-1×10E6 live cells extracted from tumors. Lysates were centrifuged for 10 mins at 20,817×g and lysate supernatants were saved for further analysis. Protein levels were determined by the BCA Assay performed according to manufacturer's protocol (EMD Millipore, Cat. No. 71285-3). Samples were evaluated by Western blot analysis on the Jess Platform (ProteinSimple). Lysates were diluted with complete lysis buffer (as described above) and 5 μg of total proteins were loaded onto each capillary. Samples were prepared using the ProteinSimple EZ Standard Pack 1 (Cat. No. PS-ST01EZ-8; containing tubes with powdered (5×) Fluorescent Master Mix, DTT, and biotinylated ladder) and run using the ProteinSimple 25-Capillary Cartridge kit (Cat. No. SM-W004; containing 25-capillary cartridge Wash reagent, and 10× Sample Buffer reagent), the ProteinSimple Anti-Rabbit HRP Detection Module for Jess (Cat. No. DM-001; containing Antibody Diluent, anti-rabbit secondary antibody, Luminol-S, Peroxide, and Streptavidin-HRP), and the ProteinSimple Anti-Mouse NIR Detection Module for Jess (Cat. No. DM-009; containing Antibody Diluent, anti-mouse NIR secondary antibody, and Streptavidin-NIR) as the following describes. The DTT was reconstituted with 40 μL water to make a 400 mM solution, 20 μL of the DTT solution plus 20 μL of 10× Sample Buffer were added to reconstitute the 5× Fluorescent Master Mix, and 20 μL of H2O was used to reconstitute the biotinylated ladder. For each sample, lysate (4 μL) was combined with 5× Fluorescent Master Mix (1 μL) and heated at 95° C. for 5 minutes. Samples were cooled and stored on ice. Primary antibody solution was made using anti-SMARCA2 antibody (Abcam, Cat. No. 240648, 1:10) and anti-beta-Actin antibody (Cell Signaling Technology, Cat. No. 3700S, 1:25) in antibody diluent. The 25-capillary cartridges were prepared per standard ProteinSimple protocol with each sample in a column. For the biotinylated ladder in column 1, the following were added: 5 µL of ladder sample in Row A, 10 μL of antibody diluent in Rows B and C, 10 μL of Streptavidin-NIR in Row D, and 15 μL of a 50:50 Luminol-s/Peroxide solution in Row E. For each test sample (columns 2-25), the following were added per column: 5 μL of sample in Row A, 10 μL of antibody diluent in Row B, 10 μL of primary antibody solution in Row C, 10 μL of secondary antibody in Row D, and 15 μL of a 50:50 Luminol-S/Peroxide solution in Row E. 500 μL wash buffer was added to the wash buffer wells in the cartridge and cartridge was spun at 1000×g for 5 minutes prior to loading into the Jess. Samples were run using the Chemiluminescence and Fluorescence immunoassays in the ProteinSimple Compass for SimpleWestern program (version 5.0.0). After running, SMARCA2, actin, and background curves were identified in the Compass software; note that in the Compass software, the electropherograms are also visualized as bands for comparison with standard Western blot outputs. The electropherogram area reading for each sample curve was normalized to that of the corresponding actin curve per column following background (capillary background) subtraction using the following equation: […]
Following normalization, the percentage of SMARCA2 remaining per sample relative to the vehicle control was calculated as follows: […]

T2 sequence (P51531 whole entry, species assumed): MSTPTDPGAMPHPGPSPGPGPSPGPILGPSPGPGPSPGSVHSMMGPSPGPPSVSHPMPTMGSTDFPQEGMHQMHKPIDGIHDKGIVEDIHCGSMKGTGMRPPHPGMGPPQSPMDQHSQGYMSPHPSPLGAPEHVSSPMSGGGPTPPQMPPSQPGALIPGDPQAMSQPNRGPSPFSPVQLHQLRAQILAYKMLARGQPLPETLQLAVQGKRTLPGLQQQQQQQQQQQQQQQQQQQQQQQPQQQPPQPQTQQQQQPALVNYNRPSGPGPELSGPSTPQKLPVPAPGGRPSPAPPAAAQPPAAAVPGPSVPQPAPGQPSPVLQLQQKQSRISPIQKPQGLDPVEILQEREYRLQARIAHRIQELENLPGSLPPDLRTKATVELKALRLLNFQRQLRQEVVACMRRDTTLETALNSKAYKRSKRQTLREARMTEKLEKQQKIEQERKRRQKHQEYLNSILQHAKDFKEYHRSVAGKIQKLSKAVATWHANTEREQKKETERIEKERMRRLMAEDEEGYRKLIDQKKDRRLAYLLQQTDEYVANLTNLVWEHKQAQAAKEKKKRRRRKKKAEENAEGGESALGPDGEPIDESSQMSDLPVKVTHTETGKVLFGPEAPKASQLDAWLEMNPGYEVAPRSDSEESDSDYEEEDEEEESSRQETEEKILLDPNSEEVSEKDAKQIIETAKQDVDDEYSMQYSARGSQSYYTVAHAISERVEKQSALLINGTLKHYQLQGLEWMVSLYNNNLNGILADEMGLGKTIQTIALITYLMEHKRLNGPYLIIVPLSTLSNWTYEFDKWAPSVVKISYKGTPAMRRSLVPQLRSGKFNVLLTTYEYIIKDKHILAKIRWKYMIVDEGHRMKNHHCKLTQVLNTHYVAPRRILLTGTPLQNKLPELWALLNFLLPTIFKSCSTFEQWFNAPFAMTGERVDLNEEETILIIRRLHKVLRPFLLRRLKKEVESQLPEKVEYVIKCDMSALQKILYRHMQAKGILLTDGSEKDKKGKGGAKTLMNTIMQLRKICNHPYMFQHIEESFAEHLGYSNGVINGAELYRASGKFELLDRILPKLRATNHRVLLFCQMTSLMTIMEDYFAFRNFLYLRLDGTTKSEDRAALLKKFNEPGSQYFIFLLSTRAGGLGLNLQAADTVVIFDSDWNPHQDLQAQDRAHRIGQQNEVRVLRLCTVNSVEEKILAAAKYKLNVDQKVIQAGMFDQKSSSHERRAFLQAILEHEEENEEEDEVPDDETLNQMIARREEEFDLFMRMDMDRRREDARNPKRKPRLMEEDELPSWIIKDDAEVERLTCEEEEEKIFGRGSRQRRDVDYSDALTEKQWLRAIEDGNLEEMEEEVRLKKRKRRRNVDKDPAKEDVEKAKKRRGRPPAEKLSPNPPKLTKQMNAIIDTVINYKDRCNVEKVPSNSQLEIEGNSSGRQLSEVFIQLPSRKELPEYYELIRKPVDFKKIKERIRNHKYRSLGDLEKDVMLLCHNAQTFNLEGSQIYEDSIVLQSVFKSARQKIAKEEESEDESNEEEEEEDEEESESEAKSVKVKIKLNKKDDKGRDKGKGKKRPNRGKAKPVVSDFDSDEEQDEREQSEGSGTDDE
T1 sequence (P51532 whole entry, species assumed): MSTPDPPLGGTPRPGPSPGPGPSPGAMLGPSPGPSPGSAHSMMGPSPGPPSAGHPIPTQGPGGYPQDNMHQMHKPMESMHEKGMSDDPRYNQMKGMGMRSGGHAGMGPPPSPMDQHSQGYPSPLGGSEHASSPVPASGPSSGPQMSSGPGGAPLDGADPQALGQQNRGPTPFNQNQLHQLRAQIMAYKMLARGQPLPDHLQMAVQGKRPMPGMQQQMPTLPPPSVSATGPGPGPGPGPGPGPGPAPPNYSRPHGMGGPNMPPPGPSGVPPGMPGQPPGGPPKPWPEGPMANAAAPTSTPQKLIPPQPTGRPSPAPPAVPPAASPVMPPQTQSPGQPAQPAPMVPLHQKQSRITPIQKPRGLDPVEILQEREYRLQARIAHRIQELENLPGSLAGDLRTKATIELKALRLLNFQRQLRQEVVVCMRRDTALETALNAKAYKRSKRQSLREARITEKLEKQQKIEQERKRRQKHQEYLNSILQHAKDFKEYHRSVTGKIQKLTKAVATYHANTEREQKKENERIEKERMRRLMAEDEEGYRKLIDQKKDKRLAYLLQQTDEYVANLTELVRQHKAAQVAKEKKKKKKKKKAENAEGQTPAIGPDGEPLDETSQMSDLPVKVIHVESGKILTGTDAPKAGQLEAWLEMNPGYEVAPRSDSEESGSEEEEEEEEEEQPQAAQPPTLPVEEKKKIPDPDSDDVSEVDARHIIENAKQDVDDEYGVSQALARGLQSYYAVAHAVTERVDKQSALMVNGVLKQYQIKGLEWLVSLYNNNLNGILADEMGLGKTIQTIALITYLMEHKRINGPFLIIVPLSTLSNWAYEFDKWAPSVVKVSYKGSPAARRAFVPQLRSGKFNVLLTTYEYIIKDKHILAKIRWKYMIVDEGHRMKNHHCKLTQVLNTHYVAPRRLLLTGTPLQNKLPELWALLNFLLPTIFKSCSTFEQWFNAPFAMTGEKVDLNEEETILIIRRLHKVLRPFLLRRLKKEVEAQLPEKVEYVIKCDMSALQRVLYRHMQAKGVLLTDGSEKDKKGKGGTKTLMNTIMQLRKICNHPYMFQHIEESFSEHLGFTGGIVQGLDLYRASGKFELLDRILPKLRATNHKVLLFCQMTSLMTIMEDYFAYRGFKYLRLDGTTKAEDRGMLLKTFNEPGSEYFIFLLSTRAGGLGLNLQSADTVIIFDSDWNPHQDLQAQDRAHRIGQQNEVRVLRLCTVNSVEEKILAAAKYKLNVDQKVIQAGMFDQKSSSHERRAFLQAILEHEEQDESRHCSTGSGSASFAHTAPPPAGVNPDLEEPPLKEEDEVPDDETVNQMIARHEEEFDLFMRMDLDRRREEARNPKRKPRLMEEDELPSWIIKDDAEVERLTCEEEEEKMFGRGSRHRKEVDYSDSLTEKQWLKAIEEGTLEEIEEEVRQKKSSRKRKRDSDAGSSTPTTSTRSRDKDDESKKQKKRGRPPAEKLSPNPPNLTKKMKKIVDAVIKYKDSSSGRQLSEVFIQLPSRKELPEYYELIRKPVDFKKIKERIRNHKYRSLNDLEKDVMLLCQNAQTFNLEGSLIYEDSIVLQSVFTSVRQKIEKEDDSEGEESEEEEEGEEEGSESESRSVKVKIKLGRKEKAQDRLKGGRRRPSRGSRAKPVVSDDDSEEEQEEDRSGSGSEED

Usually Dmax stands for the greatest extent of degradation seen. Low readings indicate a partial loss of target, high ones a fuller loss of target. For `O=C1CC[C@H](c2ccc(N3CCC(CN4CCC(C5CCN(C(=O)C6(c7ccccc7)CCN(c7cnnc(-c8ccccc8O)c7)CC6)CC5)C4)CC3)cc2)C(=O)N1` (stereo partly drawn) [Example 48, (3R)-3-[4-(4-{[3-(1-{1-[6-(2-hydroxyphenyl)pyridazin-4-yl]-4-phenylpiperidine-4-carbonyl}piperidin-4-yl)pyrrolidin-1-yl]methyl}piperidin-1-yl)phenyl]piperidine-2,6-dione], at SMARCA4, the maximal degradation (Dmax) is 16.3%. Further, on SMARCA2, the Dmax worked out at 35.6% and the “Fold Selectivity SMARCA4/2” value was 1.
In general, DC50 refers to the concentration at which degradation of the target reaches its halfway point. Read a high DC50 as a less potent degrader. Compound `CC1(NC(=O)C2(c3ccccc3)CCN(c3cnnc(-c4ccccc4O)c3)CC2)CCN(C(=O)CN2CCC(c3ccc(N[C@@H]4CCC(=O)NC4=O)cc3)CC2)CC1` (racemic) [Example 86, rac-(r)-n-(1-(2-(4-(4-((2,6-dioxopiperidin-3-yl)amino)phenyl)piperidin-1-yl)acetyl)-4-methylpiperidin-4-yl)-1-(6-(2-hydroxyphenyl)pyridazin-4-yl)-4-phenylpiperidine-4-carboxamide] came in with a Dmax on SMARCA4 of 53.7%. On SMARCA2, the DC50 came out at 22.1 nM, the Dmax worked out at 70.5% and the “Fold Selectivity SMARCA4/2” value was determined as 452.
The compound `O=C1CC[C@H](c2ccc(N3CCC(CN4CC5(C4)CN(C(=O)C4(C6CC6)CCN(c6cnnc(-c7ccccc7O)c6)CC4)C5)CC3)cc2)C(=O)N1` [Example 24, (3R)-3-(4-{4-[(6-{4-cyclopropyl-1-[6-(2-hydroxyphenyl)pyridazin-4-yl]piperidine-4-carbonyl}-2,6-diazaspiro[3.3]heptan-2-yl)methyl]piperidin-1-yl}phenyl)piperidine-2,6-dione] displayed a Dmax on SMARCA4 of 31.7%. Also, at SMARCA2, it took 62.7 nM to reach half-maximal degradation (DC50), the Dmax is 56.5% and the “Fold Selectivity SMARCA4/2” value was found to be 159.52.
For `COC1(C(=O)N(C)C2CCN(CCC3CCN(c4ccc([C@H]5CCC(=O)NC5=O)cc4)CC3)CC2)CCN(c2cnnc(-c3ccccc3O)c2)CC1` [Example 196, (r)-n-(1-(2-(1-(4-(2,6-dioxopiperidin-3-yl)phenyl)piperidin-4-yl)ethyl)piperidin-4-yl)-1-(6-(2-hydroxyphenyl)pyridazin-4-yl)-4-methoxy-n-methylpiperidine-4-carboxamide] the same measures were 28%, 14 nM, 74% and 714.
On the same counts, the results for `CN(C(=O)C1(OC2CC2)CCN(c2cnnc(-c3ccccc3O)c2)CC1)C1CCN(CC2CCN(c3ccc([C@H]4CCC(=O)NC4=O)cc3)CC2)CC1` [Example 114, (r)-4-cyclopropoxy-n-(1-((1-(4-(2,6-dioxopiperidin-3-yl)phenyl)piperidin-4-yl)methyl)piperidin-4-yl)-1-(6-(2-hydroxyphenyl)pyridazin-4-yl)-n-methylpiperidine-4-carboxamide] are 49.9%, 9.94 nM, 78.6% and 1006.
As for `O=C1CC[C@H](c2ccc(N3CCC(CN4CC[C@@H](NC(=O)C5(c6ccccc6)CCN(c6cnnc(-c7ccccc7O)c6)CC5)CC45CCC5)CC3)cc2)C(=O)N1` [Example 190, N-[(8R)-5-[(1-{4-[(3R)-2,6-dioxopiperidin-3-yl]phenyl}piperidin-4-yl)methyl]-5-azaspiro[3.5]nonan-8-yl]-1-[6-(2-hydroxyphenyl)pyridazin-4-yl]-4-phenylpiperidine-4-carboxamide], at SMARCA4, half-maximal degradation (DC50) was put at 81.9 nM and the Dmax came to 58.8%. For the same compound, on SMARCA2, the DC50 turned out to be 2.72 nM, the Dmax is 89.2% and the “Fold Selectivity SMARCA4/2” value is 30.
